Measurements reported in BindingDB's records for doi:10.1016/S0960-894X(96)00563-X (1996).

Each compound was assayed against Tachykinin NK1 receptor (Bos taurus) (assay: Binding affinity against NK1 receptor by displacement of [3H]SP from bovine retina membranes).

SMILES | IC50 [nM]
Cc1cc(C)cc(C(=O)N2CC[C@H](NCc3ccnc4ccccc34)C[C@H]2Cc2ccc([N+](=O)[O-])cc2)c1 [(3,5-Dimethyl-phenyl)-{(2R,4S)-2-(4-nitro-benzyl)-4-[(quinolin-4-ylmethyl)-amino]-piperidin-1-yl}-methanone] | 3
COc1ccc(C[C@@H]2C[C@@H](NCc3ccnc4ccccc34)CCN2C(=O)c2cc(C)cc(C)c2)cc1 [(3,5-Dimethyl-phenyl)-{(2R,4S)-2-(4-methoxy-benzyl)-4-[(quinolin-4-ylmethyl)-amino]-piperidin-1-yl}-methanone] | 14
Cc1cc(C)cc(C(=O)N2CC[C@H](NCc3ccnc4ccccc34)C[C@H]2Cc2ccc(C(N)=O)cc2)c1 [4-{(2R,4S)-1-(3,5-Dimethyl-benzoyl)-4-[(quinolin-4-ylmethyl)-amino]-piperidin-2-ylmethyl}-benzamide] | 100
COc1cccc(C[C@@H]2C[C@@H](NCc3ccnc4ccccc34)CCN2C(=O)c2cc(C)cc(C)c2)c1 [(3,5-Dimethyl-phenyl)-{(2R,4S)-2-(3-methoxy-benzyl)-4-[(quinolin-4-ylmethyl)-amino]-piperidin-1-yl}-methanone] | 27
Cc1cc(C)cc(C(=O)N2CC[C@H](NCc3ccnc4ccccc34)C[C@H]2Cc2ccc(C#N)cc2)c1 [4-{(2R,4S)-1-(3,5-Dimethyl-benzoyl)-4-[(quinolin-4-ylmethyl)-amino]-piperidin-2-ylmethyl}-benzonitrile] | 21
Cc1cc(C)cc(C(=O)N2CC[C@H](NCc3ccnc4ccccc34)C[C@H]2Cc2ccc(Cl)c(Cl)c2)c1 [{(2R,4S)-2-(3,4-Dichloro-benzyl)-4-[(quinolin-4-ylmethyl)-amino]-piperidin-1-yl}-(3,5-dimethyl-phenyl)-methanone] | 9
Cc1cc(C)cc(C(=O)N2CC[C@H](NCc3ccnc4ccccc34)C[C@H]2CCc2ccccc2)c1 [(3,5-Dimethyl-phenyl)-{(2R,4S)-2-phenethyl-4-[(quinolin-4-ylmethyl)-amino]-piperidin-1-yl}-methanone] | 190
Cc1cc(C)cc(C(=O)N2CC[C@H](NCc3ccnc4ccccc34)C[C@H]2Cc2ccc(C(F)(F)F)cc2)c1 [(3,5-Dimethyl-phenyl)-[(2R,4S)-4-[(quinolin-4-ylmethyl)-amino]-2-(4-trifluoromethyl-benzyl)-piperidin-1-yl]-methanone] | 11
Cc1cc(C)cc(C(=O)N2CC[C@H](NCc3ccnc4ccccc34)C[C@H]2Cc2cc(Br)cc(Br)c2)c1 [{(2R,4S)-2-(3,5-Dibromo-benzyl)-4-[(quinolin-4-ylmethyl)-amino]-piperidin-1-yl}-(3,5-dimethyl-phenyl)-methanone] | 52
Cc1cc(C)cc(C(=O)N2CC[C@H](NCc3ccnc4ccccc34)C[C@H]2Cc2ccc3ccccc3c2)c1 [(3,5-Dimethyl-phenyl)-{(2R,4S)-2-naphthalen-2-ylmethyl-4-[(quinolin-4-ylmethyl)-amino]-piperidin-1-yl}-methanone] | 14
Cc1cc(C)cc(C(=O)N2CC[C@H](NCc3ccnc4ccccc34)C[C@H]2Cc2ccc(Cl)cc2)c1 [{(2R,4S)-2-(4-Chloro-benzyl)-4-[(quinolin-4-ylmethyl)-amino]-piperidin-1-yl}-(3,5-dimethyl-phenyl)-methanone] | 13
Cc1cc(C)cc(C(=O)N2CC[C@H](NCc3ccnc4ccccc34)C[C@H]2Cc2ccc(Cl)cc2Cl)c1 [{(2R,4S)-2-(2,4-Dichloro-benzyl)-4-[(quinolin-4-ylmethyl)-amino]-piperidin-1-yl}-(3,5-dimethyl-phenyl)-methanone] | 600
